From article PMC4059234, “Edc3 Function in Yeast and Mammals Is Modulated by Interaction with NAD-Related Compounds” (G3: Genes|Genomes|Genetics, 2014)

Columns and labels:
hEdc3 = target: T1, hEdc3 (Homo sapiens, UniProt Q96F86); assay: isothermal titration calorimetry ([…]°, pH […]); format: binding
T1 construct: gene EDC3; full-length hEdc3
T1 sequence (Q96F86 1-508): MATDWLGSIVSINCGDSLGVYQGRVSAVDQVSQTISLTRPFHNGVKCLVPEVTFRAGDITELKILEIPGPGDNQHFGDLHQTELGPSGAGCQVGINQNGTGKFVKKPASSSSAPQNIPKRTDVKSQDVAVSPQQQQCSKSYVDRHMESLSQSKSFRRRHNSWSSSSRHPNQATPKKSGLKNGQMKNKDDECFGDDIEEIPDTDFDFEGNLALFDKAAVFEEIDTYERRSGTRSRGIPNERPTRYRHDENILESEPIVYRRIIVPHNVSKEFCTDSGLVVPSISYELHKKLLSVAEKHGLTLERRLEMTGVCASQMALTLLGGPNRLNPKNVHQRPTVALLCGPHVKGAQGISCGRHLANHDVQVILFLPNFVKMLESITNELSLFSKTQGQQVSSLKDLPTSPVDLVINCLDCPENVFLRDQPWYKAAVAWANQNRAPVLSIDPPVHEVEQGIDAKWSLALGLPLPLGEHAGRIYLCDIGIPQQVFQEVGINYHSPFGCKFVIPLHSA

yEdc3 = target: T2, yEdc3 (Saccharomyces cerevisiae, UniProt P39998); assay: thin-layer chromatography of […]-NAD incubated with recombinant protein; format: biochemical
T2 construct: gene EDC3; full-length recombinant yeast Edc3
T2 sequence (P39998 1-551): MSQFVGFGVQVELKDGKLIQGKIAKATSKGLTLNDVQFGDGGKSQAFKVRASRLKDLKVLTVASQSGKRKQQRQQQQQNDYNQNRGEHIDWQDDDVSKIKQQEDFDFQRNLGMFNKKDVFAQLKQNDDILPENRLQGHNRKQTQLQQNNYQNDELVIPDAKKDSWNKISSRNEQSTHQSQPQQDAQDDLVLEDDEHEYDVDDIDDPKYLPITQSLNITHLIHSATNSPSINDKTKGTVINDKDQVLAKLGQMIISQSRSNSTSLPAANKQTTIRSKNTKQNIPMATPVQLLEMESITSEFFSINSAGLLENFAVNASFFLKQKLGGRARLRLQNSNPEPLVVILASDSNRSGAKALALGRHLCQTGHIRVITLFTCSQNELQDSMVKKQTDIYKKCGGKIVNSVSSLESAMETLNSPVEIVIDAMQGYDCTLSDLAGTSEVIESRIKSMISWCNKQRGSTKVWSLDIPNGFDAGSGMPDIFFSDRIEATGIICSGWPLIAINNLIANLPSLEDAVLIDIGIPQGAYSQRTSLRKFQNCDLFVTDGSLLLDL

Kd (hEdc3) [µM]	SMILES	thin-layer chromatography of 32P-NAD incubated with recombinant protein (yEdc3)
163 ± 27.4	NC(=O)C1=CN([C@@H]2O[C@H](COP(=O)(O)OP(=O)(O)OC[C@H]3O[C@@H](n4cnc5c(N)ncnc54)[C@H](O)[C@@H]3O)[C@@H](O)[C@H]2O)C=CC1 [NADH]	
	NC(=O)c1ccc[n+]([C@@H]2O[C@H](COP(=O)([O-])OP(=O)(O)OC[C@H]3O[C@@H](n4cnc5c(N)ncnc54)[C@H](O)[C@@H]3O)[C@@H](O)[C@H]2O)c1 [NAD]	Incubation of yeast WT Edc3 with radiolabeled NAD gave rise to two slower migrating species
